From article PMC2577155 (The Journal of neuroscience : the official journal of the …, 2008)
Substitutions are numbered along the chain they refer to. Read-outs that look alike come from different tables or passages of the source.

Tests used:
Sprague-Dawley rats [1] = experiment: Catalepsy test; format: in vivo, rat; conditions: sc, up to 4 h; TBPB 30-100 mg/kg
rM1 Y381A = target: T1, rM1 Y381A (Rattus norvegicus, UniProt P08482, Y381A); conditions: ref Sur et al., 2003; cited from earlier work
T1 sequence (P08482 1-460 Y381A): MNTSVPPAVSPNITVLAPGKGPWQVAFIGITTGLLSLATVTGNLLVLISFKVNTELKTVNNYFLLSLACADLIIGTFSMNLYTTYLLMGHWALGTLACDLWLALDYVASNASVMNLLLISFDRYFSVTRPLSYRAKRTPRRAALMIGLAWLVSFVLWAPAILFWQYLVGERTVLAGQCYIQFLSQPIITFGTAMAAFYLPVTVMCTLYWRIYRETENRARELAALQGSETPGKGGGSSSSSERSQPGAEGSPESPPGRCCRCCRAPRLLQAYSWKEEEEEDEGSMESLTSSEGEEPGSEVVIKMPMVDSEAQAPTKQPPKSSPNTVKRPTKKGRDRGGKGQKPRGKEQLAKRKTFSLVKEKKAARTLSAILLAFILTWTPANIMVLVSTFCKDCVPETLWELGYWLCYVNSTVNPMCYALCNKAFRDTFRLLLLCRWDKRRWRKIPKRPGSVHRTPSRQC

hM2 = target: T2, hM2 (Homo sapiens, UniProt P08172); experiment: Calcium mobilization assay, CHO cells expressing hM2-Gqi5; format: cell-based; conditions: M2, concentrations up to 10μM
T2 sequence (P08172 1-466): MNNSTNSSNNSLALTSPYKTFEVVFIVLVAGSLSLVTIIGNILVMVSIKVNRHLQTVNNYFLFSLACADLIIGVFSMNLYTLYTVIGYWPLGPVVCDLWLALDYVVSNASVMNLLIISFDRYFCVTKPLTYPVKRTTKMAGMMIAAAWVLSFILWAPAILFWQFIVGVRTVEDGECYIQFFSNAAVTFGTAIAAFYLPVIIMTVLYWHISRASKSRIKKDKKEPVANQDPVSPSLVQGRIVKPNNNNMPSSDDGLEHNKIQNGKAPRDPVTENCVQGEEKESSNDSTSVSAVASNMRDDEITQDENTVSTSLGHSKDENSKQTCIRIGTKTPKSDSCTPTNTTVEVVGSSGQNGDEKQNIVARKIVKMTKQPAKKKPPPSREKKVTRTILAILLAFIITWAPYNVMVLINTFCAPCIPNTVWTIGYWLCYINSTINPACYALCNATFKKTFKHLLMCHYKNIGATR

hM3 = hM3 (Homo sapiens, UniProt P20309); experiment: Calcium mobilization assay, CHO cells expressing hM3; format: cell-based; conditions: M3, concentrations up to 10μM
rM4 = target: T3, rM4 (Rattus norvegicus, UniProt P08485); experiment: Calcium mobilization assay, CHO-K1 cells expressing rM4-Gqi5; format: cell-based; conditions: M4, concentrations up to 10μM
T3 sequence (P08485 1-478): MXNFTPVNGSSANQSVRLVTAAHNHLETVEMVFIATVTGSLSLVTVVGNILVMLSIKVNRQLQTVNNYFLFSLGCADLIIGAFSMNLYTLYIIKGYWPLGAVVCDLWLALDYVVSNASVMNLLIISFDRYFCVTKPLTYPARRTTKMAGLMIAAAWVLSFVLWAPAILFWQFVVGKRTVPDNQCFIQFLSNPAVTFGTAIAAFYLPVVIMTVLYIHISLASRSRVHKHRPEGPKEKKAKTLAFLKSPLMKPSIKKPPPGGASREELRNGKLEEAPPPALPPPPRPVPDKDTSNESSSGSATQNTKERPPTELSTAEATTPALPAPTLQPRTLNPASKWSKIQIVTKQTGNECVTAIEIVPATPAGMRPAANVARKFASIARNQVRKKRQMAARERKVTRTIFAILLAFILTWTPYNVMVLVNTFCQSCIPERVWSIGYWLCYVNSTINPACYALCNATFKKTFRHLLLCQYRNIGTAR

hM5 = target: T4, hM5 (Homo sapiens, UniProt P08912); experiment: Calcium mobilization assay, CHO cells expressing hM5; format: cell-based; conditions: M5, concentrations up to 10μM
T4 sequence (P08912 1-532): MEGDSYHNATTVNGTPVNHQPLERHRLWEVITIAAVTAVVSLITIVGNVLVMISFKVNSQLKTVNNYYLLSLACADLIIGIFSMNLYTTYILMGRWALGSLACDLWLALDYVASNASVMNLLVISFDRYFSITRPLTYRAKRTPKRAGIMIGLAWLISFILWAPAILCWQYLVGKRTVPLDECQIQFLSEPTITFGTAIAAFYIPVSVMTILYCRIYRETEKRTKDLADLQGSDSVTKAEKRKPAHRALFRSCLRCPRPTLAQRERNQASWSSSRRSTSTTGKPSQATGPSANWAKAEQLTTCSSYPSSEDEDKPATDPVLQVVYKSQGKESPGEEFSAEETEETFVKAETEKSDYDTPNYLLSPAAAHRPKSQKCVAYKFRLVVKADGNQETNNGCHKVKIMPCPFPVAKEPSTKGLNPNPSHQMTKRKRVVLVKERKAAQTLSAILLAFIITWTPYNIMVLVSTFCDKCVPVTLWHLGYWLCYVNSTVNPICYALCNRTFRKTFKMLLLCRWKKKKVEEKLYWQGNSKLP

[2] = test system: amyloid precursor protein (APP) processing; format: cell-based; conditions: eight hours
Aβ40 = format: cell-based; conditions: conditioned media, ELISA
[3] = test system: Fos-like immunoreactivity; experiment: Fos immunohistochemistry in rat forebrain; format: in vivo; conditions: 100 mg/kg sc, two hours after treatment
Sprague-Dawley rats [4] = experiment: Amphetamine-induced hyperlocomotion; format: in vivo, rat; conditions: significant after 10, 30 and 56.6 mg/kg sc; amphetamine 1 mg/kg sc
Sprague-Dawley rats [5] = experiment: Locomotor activity when administered alone; format: in vivo, rat; conditions: 30-100 mg/kg sc
rats = experiment: Modified Irwin neurological test battery; format: in vivo, rat; conditions: 100 mg/kg
D2 receptors = D2 receptors (Homo sapiens, UniProt P14416); experiment: D2 receptor affinity, NIMH Psychoactive Drug Screening Program; format: binding; conditions: D2, PDSP accession number 3156
rM1 [6] = target: T5, rM1 (Rattus norvegicus, UniProt P08482); conditions: wt rM1
T5 sequence (P08482 1-460): T1 sequence (P08482 1-460 Y381A) with A381Y

rM1 [7] = target: T5, rM1; conditions: atropine 1-10 nM (CCh) or 0.3-3.0 nM (TBPB)
Sprague-Dawley rats [8] = conditions: ref Shannon et al., 2000; cited from earlier work

hM3, sequence (P20309 whole entry): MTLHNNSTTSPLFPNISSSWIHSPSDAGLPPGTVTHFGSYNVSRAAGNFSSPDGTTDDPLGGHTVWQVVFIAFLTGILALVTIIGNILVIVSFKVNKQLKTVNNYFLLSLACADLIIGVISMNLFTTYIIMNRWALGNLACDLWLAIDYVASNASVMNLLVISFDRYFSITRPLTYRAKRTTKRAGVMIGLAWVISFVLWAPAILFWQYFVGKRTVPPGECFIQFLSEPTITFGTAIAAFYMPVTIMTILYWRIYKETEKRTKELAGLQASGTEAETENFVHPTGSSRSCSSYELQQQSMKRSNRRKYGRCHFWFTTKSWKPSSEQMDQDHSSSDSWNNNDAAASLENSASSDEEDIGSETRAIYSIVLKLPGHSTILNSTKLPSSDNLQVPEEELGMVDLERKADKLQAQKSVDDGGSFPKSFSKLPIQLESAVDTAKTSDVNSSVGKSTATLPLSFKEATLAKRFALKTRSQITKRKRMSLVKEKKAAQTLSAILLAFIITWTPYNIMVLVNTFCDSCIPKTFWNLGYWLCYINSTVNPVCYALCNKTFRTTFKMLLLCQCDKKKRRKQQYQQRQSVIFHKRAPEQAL
D2 receptors, sequence (P14416 whole entry): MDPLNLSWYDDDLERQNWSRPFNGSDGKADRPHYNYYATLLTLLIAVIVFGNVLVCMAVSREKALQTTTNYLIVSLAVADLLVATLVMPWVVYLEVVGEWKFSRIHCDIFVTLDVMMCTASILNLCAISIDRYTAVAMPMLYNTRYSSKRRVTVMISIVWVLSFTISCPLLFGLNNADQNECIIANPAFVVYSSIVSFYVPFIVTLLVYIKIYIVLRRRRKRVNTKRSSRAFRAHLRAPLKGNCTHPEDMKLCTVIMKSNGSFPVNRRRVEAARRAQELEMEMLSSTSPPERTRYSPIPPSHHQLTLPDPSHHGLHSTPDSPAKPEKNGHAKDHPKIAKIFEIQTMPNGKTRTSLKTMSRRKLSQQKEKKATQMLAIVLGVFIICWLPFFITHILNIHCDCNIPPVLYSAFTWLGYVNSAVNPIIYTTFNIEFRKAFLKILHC

O=C(CCCN1CCC(O)(c2ccc(Cl)cc2)CC1)c1ccc(F)cc1 [Haloperidol, haloperidol]
catalepsy (Sprague-Dawley rats [1]): dose-and time-related increases in catalepsy

Clc1ccc2c(c1)N=C(N1CCNCC1)c1ccccc1N2 [N-desmethylclozapine]
activation of the M1 (Y381A) mutant (rM1 Y381A): fully activates

Cc1ccccc1CN1CCC(N2CCC(n3c(=O)[nH]c4ccccc43)CC2)CC1 [TBPB]
agonist activity (hM2): no agonist activity | agonist activity (hM3): no agonist activity | agonist activity (rM4): no agonist activity | agonist activity (hM5): no agonist activity | increase in shedding of APPsα compared to vehicle-treated cells ([2]; 1 μM): 58% | production of CTFα ([2]; cell lysates): increased | Aβ40 levels, % of the vehicle control (Aβ40): 61% | number of Fos-like immunoreactive neurons ([3]; DStr lateral): 2.3 ± 1.3 per mm^2 | number of Fos-like immunoreactive neurons ([3]; DStr medial): 4.2 ± 1.2 per mm^2 | number of Fos-like immunoreactive neurons ([3]; NAS shell): 72.2 ± 12.6 per mm^2 | number of Fos-like immunoreactive neurons ([3]; PFC): 326.3 ± 57.1 per mm^2 | effect on amphetamine-induced hyperlocomotion (Sprague-Dawley rats [4]): robust, dose-related inhibition | effect on general locomotor output when administered alone (Sprague-Dawley rats [5]): no effect | catalepsy (Sprague-Dawley rats [1]): did not induce catalepsy | core body temperature (rats): slight decrease | Ki (D2 receptors): 1400 nM | response as % of the maximal response to CCh (rM1 [6]): 77.3±3.4% | interaction of the agonist with the orthosteric antagonist atropine (rM1 [7]): noncompetitive

CN1CCN(C2=Nc3cc(Cl)ccc3Nc3ccccc32)CC1 [clozapine]
catalepsy (Sprague-Dawley rats [1]): failed to produce catalepsy

CCCCCCOc1nsnc1C1=CCCN(C)C1 [xanomeline]
catalepsy (Sprague-Dawley rats [8]): lack of catalepsy
